In brackets after ≈: the same amount, converted by molar mass.
Experiments:
Sporothrix schenckii [1] = assay: Antifungal activity measured against Sporothrix schenck ii.; format: functional
Candida parapsilosis = assay: Antifungal activity against Candida parapsilosis.; format: functional; settings: Lodderomyces parapsilosis
[2] = Antifungal activity against Trichophyton mentagrophytes.; format: functional, Arthroderma benhamiae; settings: Trichophyton benhamiae
Aspergillus fumigatus = assay: Antifungal activity measured against Aspergillus fumigatus; format: functional
Microsporum canis = assay: Antifungal activity against Microsporum canis; format: functional
Epidermophyton floccosum = assay: Antifungal activity against Epidermophyton floccosum.; format: functional
Trichophyton benhamiae = assay: Antifungal activity measured against Trichophyton mentagrophytes; format: functional, Arthroderma benhamiae
Cavia porcellus [3] = assay: In vivo antifungal activity by topical treatment of guinea pig dermatophytosis caused by Trichophyton mentagrophytes at a dose of 0.5%; format: functional
Cavia porcellus [4] = assay: In vivo antifungal activity by topical treatment of guinea pig dermatophytosis caused by Trichophyton mentagrophytes at a dose of 0.1%; format: functional
Cavia porcellus [5] = assay: In vivo antifungal activity by topical treatment of guinea pig dermatophytosis caused by Trichophyton mentagrophytes at a dose of 2%; format: functional
Sporothrix schenckii [6] = assay: Antifungal activity was measured against Sporothrix schenck ii.; format: functional
Cavia porcellus [7] = assay: In vivo antifungal activity (% cure) was determined by topical treatment of guinea pig dermatophytosis caused by Trichophyton mentagrophytes at a dose of […]; format: functional
Cavia porcellus [8] = assay: In vivo antifungal activity (% cure) was determined by topical treatment of guinea pig dermatophytosis caused by Trichophyton mentagrophytes at a dose of 2%; format: functional
Cavia porcellus [9] = assay: In vivo antifungal activity (% cure) was determined by topical treatment of guinea pig dermatophytosis caused by Trichophyton mentagrophytes at a dose of 0.5%; format: functional

SMILES: CN(C/C=C/c1ccccc1)Cc1ccc2ccccc2c1
- MIC (Sporothrix schenckii [1]): 100 µg/mL (≈ 348 µM)
- MIC (Candida parapsilosis): > 100 µg/mL
- MIC [2]: 25 µg/mL (≈ 87 µM)
- MIC (Aspergillus fumigatus): > 100 µg/mL
- MIC (Microsporum canis): 50 µg/mL (≈ 174 µM)
- MIC (Epidermophyton floccosum): 25 µg/mL (≈ 87 µM)

SMILES: CN(C/C=C/c1ccccc1)Cc1ccc2c(c1)C1CCC2C1 (centres undefined)
- MIC (Sporothrix schenckii [1]): 100 µg/mL (≈ 330 µM)
- MIC (Candida parapsilosis): > 100 µg/mL
- MIC [2]: 6.2 µg/mL (≈ 20.4 µM)
- MIC (Aspergillus fumigatus): > 100 µg/mL
- MIC (Microsporum canis): 50 µg/mL (≈ 165 µM)
- MIC (Epidermophyton floccosum): 12.5 µg/mL (≈ 41.2 µM)

SMILES: CN(C/C=C/c1cccs1)Cc1cccc2ccccc12
- MIC (Trichophyton benhamiae): 0.1 µg/mL (≈ 0.341 µM)
- Activity (Cavia porcellus [3]): 56%
- MIC (Sporothrix schenckii [1]): 3.1 µg/mL (≈ 10.6 µM)
- Activity (Cavia porcellus [4]): 13%
- MIC (Candida parapsilosis): 6.2 µg/mL (≈ 21.1 µM)
- MIC (Aspergillus fumigatus): 100 µg/mL (≈ 341 µM)
- MIC (Microsporum canis): 0.2 µg/mL (≈ 0.682 µM)
- MIC (Epidermophyton floccosum): 0.2 µg/mL (≈ 0.682 µM)
- Activity (Cavia porcellus [5]): 96%

SMILES: CCOC(=O)/C=C/C=C/CN(C)Cc1cccc2ccccc12
- MIC (Trichophyton benhamiae): < 1.6 µg/mL
- MIC (Candida parapsilosis): > 100 µg/mL
- MIC (Aspergillus fumigatus): > 100 µg/mL
- MIC (Microsporum canis): 3.1 µg/mL (≈ 10 µM)
- MIC (Sporothrix schenckii [6]): 100 µg/mL (≈ 323 µM)
- MIC (Epidermophyton floccosum): 3.1 µg/mL (≈ 10 µM)

SMILES: CN(C/C=C/c1ccc(Cl)cc1)Cc1cccc2ccccc12
- MIC (Trichophyton benhamiae): 0.2 µg/mL (≈ 0.621 µM)
- Activity (Cavia porcellus [3]): 25%
- MIC (Sporothrix schenckii [1]): 3.1 µg/mL (≈ 9.63 µM)
- Activity (Cavia porcellus [4]): 0%
- MIC (Candida parapsilosis): 100 µg/mL (≈ 311 µM)
- MIC (Aspergillus fumigatus): > 100 µg/mL
- MIC (Microsporum canis): 0.4 µg/mL (≈ 1.24 µM)
- MIC (Epidermophyton floccosum): 0.4 µg/mL (≈ 1.24 µM)
- Activity (Cavia porcellus [5]): 44%

SMILES: CN(C/C=C/c1ccccc1)CC1=CCc2ccccc21
- MIC (Sporothrix schenckii [1]): > 100 µg/mL
- MIC (Candida parapsilosis): > 100 µg/mL
- MIC [2]: 1.6 µg/mL (≈ 5.81 µM)
- MIC (Aspergillus fumigatus): > 100 µg/mL
- MIC (Microsporum canis): 3.1 µg/mL (≈ 11.3 µM)
- MIC (Epidermophyton floccosum): 12.5 µg/mL (≈ 45.4 µM)

SMILES: CN(C/C=C/C1=CCCC1)Cc1cccc2ccccc12
- MIC (Trichophyton benhamiae): 0.1 µg/mL (≈ 0.36 µM)
- Activity (Cavia porcellus [3]): 91%
- MIC (Sporothrix schenckii [1]): 3.1 µg/mL (≈ 11.2 µM)
- Activity (Cavia porcellus [4]): 30%
- MIC (Candida parapsilosis): 6.2 µg/mL (≈ 22.3 µM)
- MIC (Aspergillus fumigatus): 50 µg/mL (≈ 180 µM)
- MIC (Microsporum canis): 0.2 µg/mL (≈ 0.721 µM)
- MIC (Epidermophyton floccosum): 0.2 µg/mL (≈ 0.721 µM)
- Activity (Cavia porcellus [5]): 100%

SMILES: COc1ccc2c(CN(C)C/C=C/c3ccccc3)cccc2c1
- MIC (Sporothrix schenckii [1]): 25 µg/mL (≈ 78.8 µM)
- MIC (Candida parapsilosis): > 100 µg/mL
- MIC [2]: 1.6 µg/mL (≈ 5.04 µM)
- MIC (Aspergillus fumigatus): > 100 µg/mL
- MIC (Microsporum canis): 12.5 µg/mL (≈ 39.4 µM)
- MIC (Epidermophyton floccosum): 12.5 µg/mL (≈ 39.4 µM)

SMILES: CN(C/C=C/c1cccc2ccccc12)Cc1ccccc1
- MIC (Sporothrix schenckii [1]): 100 µg/mL (≈ 348 µM)
- MIC (Candida parapsilosis): > 100 µg/mL
- MIC [2]: 100 µg/mL (≈ 348 µM)
- MIC (Aspergillus fumigatus): > 100 µg/mL
- MIC (Microsporum canis): 100 µg/mL (≈ 348 µM)
- MIC (Epidermophyton floccosum): 100 µg/mL (≈ 348 µM)

SMILES: CN(C/C=C/c1ccccc1)Cc1cccc2c1CCCC2
- MIC (Trichophyton benhamiae): 0.4 µg/mL (≈ 1.37 µM)
- Activity (Cavia porcellus [3]): 22%
- MIC (Sporothrix schenckii [1]): 3.1 µg/mL (≈ 10.6 µM)
- Activity (Cavia porcellus [4]): 0%
- MIC (Candida parapsilosis): 50 µg/mL (≈ 172 µM)
- MIC (Aspergillus fumigatus): > 100 µg/mL
- MIC (Microsporum canis): 0.8 µg/mL (≈ 2.75 µM)
- MIC (Epidermophyton floccosum): 0.8 µg/mL (≈ 2.75 µM)
- Activity (Cavia porcellus [5]): 50%

SMILES: CN(C/C=C/c1ccccc1)c1cccc2ccccc12
- MIC (Sporothrix schenckii [1]): > 100 µg/mL
- MIC (Candida parapsilosis): > 100 µg/mL
- MIC [2]: 6.2 µg/mL (≈ 22.7 µM)
- MIC (Aspergillus fumigatus): > 100 µg/mL
- MIC (Microsporum canis): > 100 µg/mL
- MIC (Epidermophyton floccosum): > 100 µg/mL

SMILES: CN(C/C=C/c1ccccc1)Cc1ccc(Cl)c2ccccc12
- Activity (Cavia porcellus [3]): 44%
- MIC (Sporothrix schenckii [1]): 3.1 µg/mL (≈ 9.63 µM)
- Activity (Cavia porcellus [4]): 18%
- MIC (Candida parapsilosis): 1.6 µg/mL (≈ 4.97 µM)
- MIC [2]: 0.05 µg/mL (≈ 0.155 µM)
- MIC (Aspergillus fumigatus): > 100 µg/mL
- MIC (Microsporum canis): 0.1 µg/mL (≈ 0.311 µM)
- MIC (Epidermophyton floccosum): 0.1 µg/mL (≈ 0.311 µM)
- Activity (Cavia porcellus [5]): 88%

SMILES: CN(C/C=C/C(=O)O)Cc1cccc2ccccc12
- MIC (Sporothrix schenckii [1]): < 100 µg/mL
- MIC (Candida parapsilosis): < 100 µg/mL
- MIC [2]: < 100 µg/mL
- MIC (Aspergillus fumigatus): < 100 µg/mL
- MIC (Microsporum canis): < 100 µg/mL
- MIC (Epidermophyton floccosum): < 100 µg/mL

SMILES: CC(c1cccc2ccccc12)N(C)C/C=C/c1ccccc1 (centres undefined)
- MIC (Trichophyton benhamiae): 0.1 µg/mL (≈ 0.332 µM)
- Activity (Cavia porcellus [3]): 75%
- MIC (Sporothrix schenckii [1]): 3.1 µg/mL (≈ 10.3 µM)
- Activity (Cavia porcellus [4]): 15%
- MIC (Candida parapsilosis): 3.1 µg/mL (≈ 10.3 µM)
- MIC (Aspergillus fumigatus): 50 µg/mL (≈ 166 µM)
- MIC (Microsporum canis): 0.4 µg/mL (≈ 1.33 µM)
- MIC (Epidermophyton floccosum): 0.2 µg/mL (≈ 0.663 µM)
- Activity (Cavia porcellus [5]): 100%

SMILES: CCCC/C=C/C/C=C/CN(C)Cc1cccc2ccccc12
- MIC (Trichophyton benhamiae): 0.05 µg/mL (≈ 0.163 µM)
- Activity (Cavia porcellus [7]): 40%
- Activity (Cavia porcellus [3]): 69%
- MIC (Sporothrix schenckii [1]): 3.1 µg/mL (≈ 10.1 µM)
- MIC (Candida parapsilosis): 1.6 µg/mL (≈ 5.2 µM)
- MIC (Aspergillus fumigatus): 25 µg/mL (≈ 81.3 µM)
- MIC (Microsporum canis): 0.1 µg/mL (≈ 0.325 µM)
- MIC (Epidermophyton floccosum): 0.2 µg/mL (≈ 0.65 µM)
- Activity (Cavia porcellus [5]): 100%

SMILES: CN(C/C=C/C(=O)OCc1ccccc1)Cc1cccc2ccccc12
- MIC (Trichophyton benhamiae): < 1.6 µg/mL
- MIC (Sporothrix schenckii [1]): 12.5 µg/mL (≈ 36.2 µM)
- Activity (Cavia porcellus [4]): 0%
- Activity (Cavia porcellus [8]): 8%
- MIC (Candida parapsilosis): > 100 µg/mL
- MIC (Aspergillus fumigatus): > 100 µg/mL
- MIC (Microsporum canis): < 1.6 µg/mL
- Activity (Cavia porcellus [9]): 0%
- MIC (Epidermophyton floccosum): < 1.6 µg/mL

SMILES: CN(C/C=C/c1ccccn1)Cc1cccc2ccccc12
- MIC (Trichophyton benhamiae): < 1.6 µg/mL
- Activity (Cavia porcellus [3]): 0%
- MIC (Sporothrix schenckii [1]): 100 µg/mL (≈ 347 µM)
- Activity (Cavia porcellus [4]): 0%
- MIC (Candida parapsilosis): > 100 µg/mL
- MIC (Aspergillus fumigatus): > 100 µg/mL
- MIC (Microsporum canis): 12.5 µg/mL (≈ 43.3 µM)
- MIC (Epidermophyton floccosum): 12.5 µg/mL (≈ 43.3 µM)
- Activity (Cavia porcellus [5]): 7%

SMILES: CN(CC/C=C/c1ccccc1)Cc1cccc2ccccc12
- MIC (Sporothrix schenckii [1]): 100 µg/mL (≈ 332 µM)
- MIC (Candida parapsilosis): > 100 µg/mL
- MIC [2]: 3.1 µg/mL (≈ 10.3 µM)
- MIC (Aspergillus fumigatus): 100 µg/mL (≈ 332 µM)
- MIC (Microsporum canis): 3.1 µg/mL (≈ 10.3 µM)
- MIC (Epidermophyton floccosum): 6.2 µg/mL (≈ 20.6 µM)

SMILES: CN(C/C=C\c1ccccc1)Cc1cccc2ccccc12
- MIC (Trichophyton benhamiae): 0.1 µg/mL (≈ 0.348 µM)
- Activity (Cavia porcellus [3]): 47%
- MIC (Sporothrix schenckii [1]): 3.1 µg/mL (≈ 10.8 µM)
- Activity (Cavia porcellus [4]): 34%
- MIC (Candida parapsilosis): 3.1 µg/mL (≈ 10.8 µM)
- MIC (Aspergillus fumigatus): 25 µg/mL (≈ 87 µM)
- MIC (Microsporum canis): 0.2 µg/mL (≈ 0.696 µM)
- MIC (Epidermophyton floccosum): 0.2 µg/mL (≈ 0.696 µM)
- Activity (Cavia porcellus [5]): 100%

Source: ChEMBL document CHEMBL1123199, “Synthesis and structure-activity relationships of naftifine-related allylamine antimycotics” (1986)
